From patent US8722703B2, “Fused amino pyridines for the treatment of brain tumors” (Curis, Inc., priority 2009, dated 2014)

Tested on: MDA-MB-468 breast cancer orthotopic tumor
Test: Efficacy study in the MDA-MB-468 orthotopic tumor model
Format: in vivo, nude mice
Details: Compound-15 120 mg/kg orally q2d, paclitaxel 12.5 mg/kg i.p. twice weekly

Structure (SMILES): CN(C)c1cc2c(cc1Sc1nc3c(N)nccc3n1CCNCC(C)(C)C)OCO2 [Compound 15, 2-(6-(dimethylamino)benzo[d][1,3]dioxol-5-ylthio)-1-(2-(neopentylamino)ethyl)-1H-imidazo[4,5-c]pyridin-4-amine]
- tumor regression: 3.4%
